Test results: patent publication US20100056519A1, “COMPOSITION AND METHOD FOR REDUCING PLATELET ACTIVATION AND FOR THE TREATMENT OF THROMBOTIC EVENTS” (priority 2008, published 2010)

Legend:
Assay type in all cases: cell-based, human
SPAN-12 [1] = assay: Unstimulated whole blood flow cytometry, SPAN-12; details: Mean ± SD
Experimental: (§1) The methodology employed was conventional aggregation induced by 5 μM ADP, 1 μg/ml collagen, 10 μM TRAP, whole blood aggregation with 1 μg/ml collagen, Ultegra, and PFA-100 Analyzers, expression of 14 intact, and TRAP-stimulated major receptors by whole blood flow cytometry were utilized to assess platelet activity after preincubation with escalating concentrations of E5555 (20 ng/ml, 50 ng/ml, and 100 ng/ml). The experiments were performed in healthy volunteers, CAD patients treated with ASA, and CAD patients treated with ASA and clopidogrel combination (n=10, for each group).
(§2) An Informed Consent was obtained from all volunteers. Drug users were excluded from data analysis. The study was approved by Quorum Institutional Review Board. All subjects underwent blood sampling after at least 30 minutes of rest and two or more hours of fasting. Blood (28 ml) was drawn between 8 and 10 a.m. in order to avoid any diurnal influence and sampled from an antecubital vein using a 21-gauge butterfly needle containing 3.2% sodium citrate (1:9 volume) after having discarded the first 1.5 ml of free running blood. Four Vacutainer tubes (7.0 ml) were collected for a total of 28 ml of whole blood-citrate mixture from each study participant. Chronologically, blood samples were delivered to the core laboratory facility within 45 minutes after drawing. Then all tubes of blood-citrate mixture were pooled. One portion of pooled blood (5 ml) was kept as an internal control and pretreated with the vehicle. The remaining blood (23 ml) was used for the in vitro exposure to E5555 at concentrations of 20 ng/ml, 50 ng/ml, and 100 ng/ml. […] The platelet aggregation studies, Rapid Analyzers measures, and flow cytometry preparations were initiated within no more than 110 minutes following the blood draw, incubation with the drug, and preparation of the samples.
(§3) Formation of platelet-leukocyte aggregates was assessed by dual labeling with pan-platelet marker (CD151), and then with CD14, the macrophage receptor for endotoxin lipopolysaccharides (PharMingen, and Coulter, San Diego, Calif., USA). The tubes were then covered with aluminum foil and incubated at 37° C. for 40 minutes with gentle rotation. After incubation, samples were immediately analyzed on a Becton Dickinson FACScan flow cytometer. The instrument was set up to measure forward light scatter, and FITC fluorescence. All parameters were collected using four-decade logarithmic amplification. The data was retrieved in list mode files and then analyzed. P selectin was expressed as percent positive cells. Other antigens were expressed as log mean fluorescence intensity.

SPAN-12 [2] = assay: TRAP-stimulated whole blood flow cytometry, SPAN-12; details: Mean ± SD
Experimental: as §1, §2, §3
For flow cytometry (TRAP-stimulated) all of the above flow cytometry experiments were identically repeated utilizing prestimulation with 10 μmol/L TRAP for 5 minutes at 37° C. To determine statistics, a Paired Sign Test was used to define significance of differences between vehicle and E5555-treated groups. The Mann-Whitney U test was used to analyze nonparametric data. Normally distributed data were expressed as mean±standard error (m±SE), and skewed data as median (range). All P-values were two sided. All analysis was performed using the SPSS v9.0 program (SPSS Inc., Chicago, Ill.).

platelets [3] = assay: Ultegra Rapid Platelet-Function Assay (RPFA-TRAP); details: for Platelet Activation Units (PAU): Mean ± SD
Experimental: as §1, §2
Whole blood aggregation was determined using a Chronolog device 592A. The whole blood-citrate mixture was diluted 1:1 with 0.5 ml phosphate buffered saline and gently swirled. The sample then was allowed to warm to 37° C. for 5 minutes then transferred to the assay well. The electrode was then placed in the cuvette and the sample was stimulated with 1 μg/ml collagen. The change in electrical impedance was digitally recorded. Each whole blood sample was analyzed utilizing 2 different clinical devices: • (1) a Rapid Platelet-Function Assay (Ultegra®) (Accumetrics, Inc., San Diego, Calif.), which is a rapid platelet-function assay aspirin cartridge test with TRAP used as agonist. Polystyrene beads coated with fibrinogen are placed in a cartridge along with the peptide that activates thrombin receptor. Anticoagulated whole blood was added to the cartridge, and agglutination between platelets and coated beads was recorded. The data mirrors turbidimetric platelet aggregation and presumably reflects platelet glycoprotein IIb/IIIa blockade. Ultegra RPFA-TRAP Assay results were reported as Platelet Activation Units (PAU); and • (2) Platelet-Function Analyzer PFA-100 ™ (Dade Behring, Deerfield Ill.), which is a high shear-inducing analyzer that simulates primary hemostasis after injury to a small vessel under flow conditions. The device provides a constant negative pressure that aspirates whole blood, which comes into contact with the collagen, coated membrane and then passes through the aperture. The time required to obtain occlusion of the aperture is digitally recorded. The time to aperture occlusion (the closure time) is recorded in seconds and is inversely related to the degree of shear-induced platelet activation. We used ADP/Collagen cartridges in the index study. Both PFA-100 and Ultegra assays were performed in duplicate. An electronic quality control test was performed on each instrument daily prior to performing any patient samples.

platelets [4] = assay: Conventional platelet aggregation in PRP induced by 5 μM ADP; details: for Platelet Aggregation (%), ADP 5 μM: Mean ± SD
Experimental: as §1, §2
Platelet counts were determined in each PRP sample with a Coulter Counter ZM (Coulter Co., Hialeah, Fla.). Platelet numbers were adjusted to 3.50×10^8/ml for aggregation using homologous platelet-poor plasma. Platelet aggregation was stimulated with 5 μM ADP, 1 μg/ml collagen, or 10 μM TRAP. All agonists were obtained from Chronolog Corporation (Havertown, Pa.) and Sigma (St. Louis, Miss.). Platelet aggregation experiments were performed using a Chrono-Log Lumi-Aggregometer (model 560-Ca). Aggregation curves were recorded for 4 minutes and analyzed according to internationally established standards using Aggrolink® software. Platelet aggregability was expressed as the percentage of light transmittance change from baseline using platelet-poor plasma as a reference.

[5] = E5555 20 ng/ml, Patients (ASA + C)
[6] = E5555 50 ng/ml, Patients (ASA + C)
[7] = E5555 100 ng/ml, Patients (ASA + C)
[8] = E5555 100 ng/ml, Patients (ASA)

With `Br.CCOc1cc2c(c(F)c1OCC)C(=N)N(CC(=O)c1cc(N3CCOCC3)c(OC)c(C(C)(C)C)c1)C2` [E5555, 1-(3-tert-butyl-4-methoxy-5-morpholinophenyl)-2-(5,6-diethoxy-7-fluoro-1-imino-1,3-dihydro-2H-isoindol-2-yl)ethanone hydrobromide] the “SPAN-12, Mean Fluorescence Intensity” value (SPAN-12 [1]; [5]) was 11 ± 4 MFI, the “SPAN-12, Mean Fluorescence Intensity” value (SPAN-12 [1]; E5555 20 ng/ml, Patients (ASA)) was 14 ± 3 MFI and the “SPAN-12, Mean Fluorescence Intensity” value (SPAN-12 [1]; E5555 20 ng/ml, Volunteers) was 19 ± 4 MFI. For the same compound, the “SPAN-12, Mean Fluorescence Intensity” value (SPAN-12 [1]; [6]) was 10 ± 6 MFI, the “SPAN-12, Mean Fluorescence Intensity” value (SPAN-12 [1]; E5555 50 ng/ml, Patients (ASA)) was 11 ± 5 MFI and the “SPAN-12, Mean Fluorescence Intensity” value (SPAN-12 [1]; E5555 50 ng/ml, Volunteers) was 19 ± 6 MFI. For the same compound, the “SPAN-12, Mean Fluorescence Intensity” value (SPAN-12 [1]; [7]) was 12 ± 7 MFI, the “SPAN-12, Mean Fluorescence Intensity” value (SPAN-12 [1]; [8]) was 13 ± 5 MFI and the “SPAN-12, Mean Fluorescence Intensity” value (SPAN-12 [1]; E5555 100 ng/ml, Volunteers) was 18 ± 6 MFI. The “SPAN-12, Mean Fluorescence Intensity” value (SPAN-12 [2]; [5]) was 9 ± 2 MFI, the “SPAN-12, Mean Fluorescence Intensity” value (SPAN-12 [2]; E5555 20 ng/ml, Patients (ASA)) was 12 ± 4 MFI and the “SPAN-12, Mean Fluorescence Intensity” value (SPAN-12 [2]; E5555 20 ng/ml, Volunteers) was 20 ± 3 MFI. For the same compound, the “SPAN-12, Mean Fluorescence Intensity” value (SPAN-12 [2]; [6]) was 9 ± 3 MFI, the “SPAN-12, Mean Fluorescence Intensity” value (SPAN-12 [2]; E5555 50 ng/ml, Patients (ASA)) was 9 ± 4 MFI and the “SPAN-12, Mean Fluorescence Intensity” value (SPAN-12 [2]; E5555 50 ng/ml, Volunteers) was 17 ± 5 MFI. The “SPAN-12, Mean Fluorescence Intensity” value (SPAN-12 [2]; [7]) was 11 ± 3 MFI, the “SPAN-12, Mean Fluorescence Intensity” value (SPAN-12 [2]; [8]) was 10 ± 6 MFI and the “SPAN-12, Mean Fluorescence Intensity” value (SPAN-12 [2]; E5555 100 ng/ml, Volunteers) was 17 ± 4 MFI. For the same compound, the “Platelet Activation Units (PAU)” value (platelets [3]; [5]) was 115 ± 21 PAU, the “Platelet Activation Units (PAU)” value (platelets [3]; E5555 20 ng/ml, Patients (ASA)) was 118 ± 12 PAU and the “Platelet Activation Units (PAU)” value (platelets [3]; E5555 20 ng/ml, Volunteers) was 270 ± 30 PAU. The “Platelet Activation Units (PAU)” value (platelets [3]; [6]) was 108 ± 20 PAU, the “Platelet Activation Units (PAU)” value (platelets [3]; E5555 50 ng/ml, Patients (ASA)) was 114 ± 11 PAU and the “Platelet Activation Units (PAU)” value (platelets [3]; E5555 50 ng/ml, Volunteers) was 126 ± 20 PAU. For the same compound, the “Platelet Activation Units (PAU)” value (platelets [3]; [7]) was 112 ± 18 PAU, the “Platelet Activation Units (PAU)” value (platelets [3]; [8]) was 113 ± 14 PAU and the “Platelet Activation Units (PAU)” value (platelets [3]; E5555 100 ng/ml, Volunteers) was 117 ± 21 PAU. For the same compound, the “Platelet Analyzer readings, fibrinogen binding, effect in words” value (platelets [3]; overall summary) was “diminished fibrinogen binding”, the “Ultegra Analyzer PAU, effect in words” value (platelets [3]; volunteers and CAD patients on ASA alone or with clopidogrel) was “reduction of PAU” and the “inhibition of platelet activity, aggregation induced by ADP” value (platelets [4]; ASA-treated patients with coronary artery disease) was 10-12%. For the same compound, the “ADP-induced aggregation, effect in words” value (platelets [4]; CAD patients treated with ASA+clopidogrel) was “remains unchanged”, the “Platelet Aggregation (%), ADP 5 μM” value (platelets [4]; E5555 20 ng/ml, CAD patients treated with ASA + clopidogrel) was 40.8 ± 7.1% and the “Platelet Aggregation (%), ADP 5 μM” value (platelets [4]; E5555 20 ng/ml, CAD patients treated with ASA) was 51.8 ± 4.7 %. The “Platelet Aggregation (%), ADP 5 μM” value (platelets [4]; E5555 20 ng/ml, healthy volunteers) was 57.0 ± 9.2 %, the “Platelet Aggregation (%), ADP 5 μM” value (platelets [4]; E5555 50 ng/ml, CAD patients treated with ASA + clopidogrel) was 42.6 ± 8.3% and the “Platelet Aggregation (%), ADP 5 μM” value (platelets [4]; E5555 50 ng/ml, CAD patients treated with ASA) was 53.3 ± 5.9 %. For the same compound, the “Platelet Aggregation (%), ADP 5 μM” value (platelets [4]; E5555 50 ng/ml, healthy volunteers) was 59.4 ± 7.9 %, the “Platelet Aggregation (%), ADP 5 μM” value (platelets [4]; E5555 100 ng/ml, CAD patients treated with ASA + clopidogrel) was 39.3 ± 5.1% and the “Platelet Aggregation (%), ADP 5 μM” value (platelets [4]; E5555 100 ng/ml, CAD patients treated with ASA) was 56.2 ± 5.3%. The “Platelet Aggregation (%), ADP 5 μM” value (platelets [4]; E5555 100 ng/ml, healthy volunteers) was 60.8 ± 10.0 %, the “inhibition of conventional platelet aggregation induced by ADP” value (platelets [4]; healthy volunteers, E5555 20, 50, and 100 ng/ml) was 15-20% and the “inhibition of ADP-induced platelet aggregation in plasma” value (platelets [4]; overall summary of the study) was 10-15%.
